Experimental data taken from patent publication US9169241B2, “Quinolinyloxyphenylsulfonamides” (Max-Planck-Gesellschaft Zur Forderung der Wissenschaften …, priority 2009, dated 2015).

Legend:
[1] = target: T1, wild type AXL (wtAXL) receptor tyrosine kinase (Homo sapiens, UniProt P30530); assay: NIH-3T3-AXL cellular kinase assay (pY-AXL-ELISA); format: cell-based; conditions: NIH-3T3-AXL (clone 22) cells, serum depleted, compounds 1 h; Table Ia
T1 construct: WtAXL cDNA was cloned into vector pLXSN(ESK) and transfected into Phoenix E packaging cells; expressed in transfected cells; host or cells: NIH3T3 N7 (mouse fibroblasts), retrovirally infected, clone 22
T1 sequence (P30530 26-894): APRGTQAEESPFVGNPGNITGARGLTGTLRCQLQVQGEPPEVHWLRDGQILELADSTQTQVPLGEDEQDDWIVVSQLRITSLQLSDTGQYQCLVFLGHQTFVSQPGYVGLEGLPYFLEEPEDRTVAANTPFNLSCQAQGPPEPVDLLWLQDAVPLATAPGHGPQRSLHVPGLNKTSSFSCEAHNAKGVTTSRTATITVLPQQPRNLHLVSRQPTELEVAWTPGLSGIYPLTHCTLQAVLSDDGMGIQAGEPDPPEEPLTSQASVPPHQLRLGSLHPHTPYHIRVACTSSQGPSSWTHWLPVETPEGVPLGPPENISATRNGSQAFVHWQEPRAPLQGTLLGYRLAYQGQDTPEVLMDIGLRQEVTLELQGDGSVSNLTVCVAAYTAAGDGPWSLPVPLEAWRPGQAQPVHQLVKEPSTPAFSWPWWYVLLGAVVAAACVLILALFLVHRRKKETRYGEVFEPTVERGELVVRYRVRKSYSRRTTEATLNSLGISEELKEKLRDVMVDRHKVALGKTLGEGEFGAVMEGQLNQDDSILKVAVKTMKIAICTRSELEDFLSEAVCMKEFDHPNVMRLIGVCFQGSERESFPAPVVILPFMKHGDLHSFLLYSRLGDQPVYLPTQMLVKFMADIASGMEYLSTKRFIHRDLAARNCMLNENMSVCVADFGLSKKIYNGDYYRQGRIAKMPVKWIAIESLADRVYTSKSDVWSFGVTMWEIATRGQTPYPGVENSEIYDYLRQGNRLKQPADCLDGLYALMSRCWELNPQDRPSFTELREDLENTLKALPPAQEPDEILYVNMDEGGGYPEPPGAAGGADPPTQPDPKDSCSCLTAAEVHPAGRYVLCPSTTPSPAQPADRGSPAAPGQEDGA
Procedure, shortened: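 Phospho-AXL was quantified by ELISA in lysates (4G10-biotin, streptavidin-AP, AttoPhos, 430/560 nm read at 90 min). The cells were monoclonal NIH3T3 lines stably transduced with human wtAXL, exposed to serial compound dilutions for 1 h before lysis.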

Hs578T [2] = assay: Cell vitality assay (ATP assay, CellTiter-Glo); format: cell-based; conditions: Homo sapiens, Hs-578T; HS578T cell line, 72 h; Table Ib; read-out: IC50 ATP-Assay HS578T after 72 h
Procedure, shortened: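 IC50s reflect 50% loss of ATP-dependent luminescence versus DMSO control after a 72 h treatment of 1000 cells per well across 0.195–12.5 μM compound.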

Hs578T [3] = assay: Wound healing migration assay; format: cell-based; conditions: Homo sapiens, Hs-578T; HS578T cell line; Table Ib
Procedure, shortened: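 Compound exposure at 12.5, 6.25 and 3.125 μM, with DMSO control, on scratch-wounded monolayers (150000 cells/24 well, overnight). Wound closure imaged by microscopy, fixed with crystal violet after 48 h or 72 h depending on cell line; IC50 is the concentration giving 50% wound size between t0 and t48/t72.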

Hs578T [4] = assay: Matrigel outgrowth assay/branching assay; format: cell-based; conditions: Homo sapiens, Hs-578T; HS578T cell line; Table Ib; read-out: Total branching inhibition in Matrigel HS578T
Procedure, shortened: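 Invasive outgrowth into a 3 mg/ml Matrigel gel is judged from images taken after 48, 72 and 96 h of exposure to 3.125, 1.56 or 0.78 μM compound, with DMSO as control. Positive means total inhibition of branching.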

Structure (SMILES)	IC50 [1] [µM]	IC50 (Hs578T [2]) [µM]	IC50 (Hs578T [3]) [µM]	IC50 (Hs578T [4]) [µM]	melting point [°C]
COc1ccc2nccc(Oc3ccc(NS(=O)(=O)c4cc(F)ccc4F)cc3F)c2c1 [Example 199, 2,5-Difluoro-N-[3-fluoro-4-(6-methoxy-quinolin-4-yloxy)-phenyl]-benzenesulfonamide]	0.5 to 3	12.5 to 50	12.5 to 50	10 to 25	249 to 250
COc1cc2c(Oc3ccc(NS(=O)(=O)c4cc(Cl)ccc4Cl)cc3F)ccnc2cc1OCCN1CCOCC1 [Example 106, 2,5-Dichloro-N-{3-fluoro-4-[6-methoxy-7-(2-morpholin-4-yl-ethoxy)-quinolin-4-yloxy]-phenyl}-benzenesulfonamide]	< 0.5	≤ 12.5	12.5 to 50	10 to 25	194 to 196
COc1cc2c(Oc3ccc(NS(=O)(=O)c4c(F)cccc4F)cc3OC)ccnc2cc1OCCCN1CCC(C)CC1 [Example 173, 2,6-Difluoro-N-(3-methoxy-4-{6-methoxy-7-[3-(4-methyl-piperidin-1-yl)-propoxy]-quinolin-4-yloxy}-phenyl)-benzenesulfonamide]	0.5 to 3	≤ 12.5	12.5 to 50	10 to 25	98 to 101
COc1cc2c(Oc3ccc(Cl)c(NS(=O)(=O)c4c(Cl)cccc4Cl)c3)ccnc2cc1OCCCN1CCC(C)CC1 [Example 198, 2,6-Dichloro-N-(2-chloro-5-{6-methoxy-7-[3-(4-methyl-piperidin-1-yl)-propoxy]-quinolin-4-yloxy}-phenyl)-benzenesulfonamide]	0.5 to 3	12.5 to 50	12.5 to 50	10 to 25	206 to 208
COc1cc2c(Oc3cccc(NS(=O)(=O)c4csc5ccccc45)c3)ccnc2cc1OCCCN1CCN(C)CC1 [Example 136, Benzo[b]thiophene-3-sulfonic acid (3-{6-methoxy-7-[3-(4-methyl-piperazin-1-yl)-propoxy]-quinolin-4-yloxy}-phenyl)-amide]	0.5 to 3	≤ 12.5	≤ 12.5	≤ 10	91 to 93
COc1cc2c(Oc3ccc(NS(=O)(=O)c4cccc(F)c4)cc3F)ccnc2cc1OCCCN1CCCC(C)C1 (stereo not drawn) [Example 37, 3-Fluoro-N-(3-fluoro-4-{6-methoxy-7-[3-(3-methyl-piperidin-1-yl)-propoxy]-quinolin-4-yloxy}-phenyl)-benzenesulfonamide]	< 0.5	≤ 12.5	12.5 to 50	10 to 25	113 to 115
COc1cc2c(Oc3ccc(NS(=O)(=O)c4ccccc4OC(F)(F)F)cc3F)ccnc2cc1OCCCN1CCCCC1C (stereo not drawn) [Example 153, N-(3-Fluoro-4-{6-methoxy-7-[3-(2-methyl-piperidin-1-yl)-propoxy]-quinolin-4-yloxy}-phenyl)-2-trifluoromethoxy-benzenesulfonamide]	< 0.5	≤ 12.5	≤ 12.5	10 to 25	90 to 92
COc1cc2c(Oc3ccc(NS(=O)(=O)c4cc(Cl)ccc4Cl)cc3F)ccnc2cc1OCCCN1CCCCC1C (stereo not drawn) [Example 154, 2,5-Dichloro-N-(3-fluoro-4-{6-methoxy-7-[3-(2-methyl-piperidin-1-yl)-propoxy]-quinolin-4-yloxy}-phenyl)-benzenesulfonamide]	< 0.5	≤ 12.5	≤ 12.5	10 to 25	128 to 130
COc1cc2c(Oc3ccc(NS(=O)(=O)c4csc5ccccc45)cc3F)ccnc2cc1OCCCN1CCN(C)CC1 [Example 116, Benzo[b]thiophene-3-sulfonic acid (3-fluoro-4-{6-methoxy-7-[3-(4-methyl-piperazin-1-yl)-propoxy]-quinolin-4-yloxy}-phenyl)-amide]	< 0.5	≤ 12.5	≤ 12.5	10 to 25	112 to 114
